Measured values as given in PMC10066322 (Scientific Reports, 2023).

Columns and labels:
PARN = target: T1, PARN (Homo sapiens, UniProt O95453); details: cited from earlier work
T1 construct: expression of the C-terminal truncated protein (1-430 aa of PARN) was soluble; His tag (from the pCold I vector); made in house; host or cells: E. coli Rosetta 2 DE
T1 sequence (O95453 1-430): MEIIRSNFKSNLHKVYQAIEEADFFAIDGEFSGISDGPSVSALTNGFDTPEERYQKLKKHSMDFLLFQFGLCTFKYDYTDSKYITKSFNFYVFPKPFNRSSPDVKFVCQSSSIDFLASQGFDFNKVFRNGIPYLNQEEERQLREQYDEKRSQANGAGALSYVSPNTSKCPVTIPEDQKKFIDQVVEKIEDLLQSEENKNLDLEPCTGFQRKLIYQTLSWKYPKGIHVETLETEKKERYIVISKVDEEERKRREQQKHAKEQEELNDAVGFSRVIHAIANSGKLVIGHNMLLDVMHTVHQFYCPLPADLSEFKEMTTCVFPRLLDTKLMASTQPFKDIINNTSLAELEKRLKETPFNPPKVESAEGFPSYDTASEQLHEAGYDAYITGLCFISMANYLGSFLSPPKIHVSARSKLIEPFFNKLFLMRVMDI

PARN1-430 [1] = target: T2, PARN1-430 (Homo sapiens, UniProt O95453); assay: Inhibition fluorescence assay (FAM-RNA / BHQ quencher deadenylase assay); format: biochemical; details: for PARN inhibitor in vitro: computational docking compounds, fluorescence assay and gels, PARN1-430 pretreated with drug 10 min
T2 construct: expression of the C-terminal truncated protein (1-430 aa of PARN) was soluble; His tag (from the pCold I vector); made in house; host or cells: E. coli Rosetta 2 DE
T2 sequence (O95453 1-430): T1 sequence (O95453 1-430)
Description: To easily screen compounds for inhibition of PARN activity, we developed an assay in which fluorescence was used as the readout for monitoring PARN1-430’s activity (Fig. 3a). This assay was modeled on a similar assay developed for Caf1/CNOT7 deadenylase. In this assay, PARN1-430 was incubated with a 5′-fluorescently labeled oligoadenylated RNA. In the absence of deadenylation, this substrate RNA can effectively hybridize to a complementary DNA oligonucleotide with a quencher on its 3′ end leading to a loss of fluorescence (Fig. 3a). When the RNA substrate is deadenylated, the quenching oligonucleotide is no longer able to stably hybridize leading to an increase in fluorescence in the reaction.
Figure 3 Developing a fluorescence assay for PARN inhibition. (a) Cartoon depicting the inhibition fluorescence assay. Schematic diagram of the fluorescence-based deadenylase assay. The assay is based on a 5′ FAM-labelled RNA oligonucleotide substrate. After incubation of the substrate in the presence of PARN1-430, the reaction is stopped and a 3′ BHQ-labelled DNA oligonucleotide probe complementary to the RNA substrate is added. The fluorescence of intact substrate is quenched upon probe hybridization because of the proximity of the BHQ […]. In contrast, the BHQ-labelled probe cannot hybridize to the FAM-labelled reaction product allowing detection of FAM fluorescence. […] 2-way ANOVA, multiple comparisons test, average ± SD, n = 3 replicates. *P < 0.05, **P < 0.005, ***P < 0.001, ****P < 0.0001, n.s. was not indicated. […] Dotted-line represents RNA and RNA + Quencher data. One-way ANOVA, multiple comparisons test, average ± SD, n ≥ 3 replicates. *P < 0.05, **P < 0.005, ***P < 0.001, ****P < 0.0001, n.s. was not indicated. (d) PARN1-430 and PARNmut enzymatic activity measured at different time points. […] Dotted-line represents RNA and RNA + Quencher data. 2-way ANOVA, multiple comparisons test, average ± SD, n = 3 replicates. *P < 0.05, **P < 0.005, ***P < 0.001, ****P < 0.0001, n.s. was not indicated.
Quenched reaction was incubated at room temperature for 10–60 min and fluorescence was measured using Fluorescein wavelength measurement.

PARN1-430 [2] = target: T2, PARN1-430; assay: Gel assay of poly(A) RNA shortening by PARN1-430; format: biochemical
Description: PARN1-430 was incubated with a fluorescently labeled RNA with a CCUUUCC sequence followed by a 9 nucleotide-long poly(A) tail and the reaction product was visualized on denaturing acrylamide gels. We observed that PARN removed the 3′ oligo(A) tail from the RNA substrate (Fig. 2c and d). […] Moreover, we observed that PARN is inhibited when treated with adenosine monophosphate (AMP), as has been reported previously.
1 µL of protein (73 nM as final concentration) (stock protein is diluted in 1× lysis buffer (HEPES KOH, pH 7.4, 30 mM, KOAc 100 mM, and Mg(Oac)2 2 mM) was added to 4 µL of 2.5× reaction buffer (Tris–HCl pH 7.4, 10 mM, KCl 50 mM, MgCl2 5 mM). If drug was added, reaction was pre-incubated with drugs for 10 min before 5 µL of RNA (5 µM as final concentration) was added. The reaction was incubated at 37 °C for 20 min. After the incubation, the reaction was either diluted with 2× loading buffer and heated to 95 °C for 5 min for gel or quenched by adding 10 µL of quencher solution (30 µM of 3′-BHQ labeled quench DNA in 1% SDS). Quenched reaction was incubated at room temperature for 10–60 min and fluorescence was measured using Fluorescein wavelength measurement.
15% TBE-Urea gel (Thermo Fisher Scientific) was prerun at 20W for 30 min. RNAs from the reaction was loaded into 15% TBE gels and run at 300 V for 35 min. The gel was visualized using iBright (Invitrogen FL1500).

Compound	Ki (PARN) [µM]	PARN inhibitor in vitro (PARN)	PARN inhibitor in vitro (PARN1-430 [1])	also measured
O=c1[nH]c(=O)n([C@@H]2O[C@H](CO)[C@@H](O)[C@H](F)[C@H]2O)cc1F [FU1, 1-(3′-deoxy-3′-fluoro-β-d-glucopyranosyl) 5-fluorouracil]	98 ± 12	Yes	–	–
Cc1cn([C@@H]2O[C@H](CO)[C@@H](O)[C@H](F)[C@H]2O)c(=O)[nH]c1=O [T1, 1-(3′-deoxy-3′-fluoro-β-d-glucopyranosyl) thymine]	135 ± 18	Yes	–	–
NC[C@@H]1O[C@H](O[C@H]2[C@@H](O)[C@H](O[C@@H]3[C@@H](O)[C@H](N)C[C@H](N)[C@H]3O[C@H]3O[C@H](CO)[C@@H](O)C[C@H]3N)O[C@@H]2CO)[C@H](N)[C@@H](O)[C@@H]1O[C@H]1O[C@H](CO)[C@@H](O)[C@H](O)[C@@H]1O [Lividomycin]	18.7 ± 2.8	Yes	–	–
CCn1nc(C2CCN(C(=O)CCO)CC2)nc1-c1cnc(N)c(-c2nnc(C(C)(C)C)o2)n1 [AZD8835]	–	–	No	–
Nc1ncnc2c1ncn2[C@@H]1O[C@H](CO)[C@@H](O)[C@@H]1O [Vidarabine]	–	–	No	–
NC(=O)c1ncn([C@@H]2O[C@H](CO)[C@@H](O)[C@H]2O)c1N [AICAR]	–	–	No	–
NC[C@@H]1O[C@H](O[C@H]2[C@@H](O)[C@H](O[C@@H]3[C@@H](O)[C@H](N)C[C@H](N)[C@H]3O[C@H]3O[C@H](CO)[C@@H](O)[C@H](O)[C@H]3N)O[C@@H]2CO)[C@H](N)[C@@H](O)[C@@H]1O [Paromomycin]	17.3 ± 3.5	Yes	–	–
Nc1ncnc2c1c(Br)cn2[C@@H]1O[C@H](CO)[C@@H](O)[C@H]1O [5-bromotubercidine]	–	–	No	–
Nc1cccc(-c2cc3c(Oc4cccc(O)c4)ncnc3[nH]2)c1 [TWS119]	–	–	No	–
Nc1ncnc2c1ccn2[C@@H]1O[C@H](CO)[C@@H](O)[C@H]1O [Tubercidine]	–	–	Yes	–
CNC(=O)c1cnn(-c2nc(N)c3ncn([C@@H]4O[C@H](CO)[C@@H](O)[C@H]4O)c3n2)c1 [Regadenoson]	–	–	Yes	–
Nc1ncnc2c1c(I)cn2C1OC(CO)C(O)C1O (stereo not shown) [5-ITU, 5-Iodotubercidin]	–	–	No	–
COc1nc(N)c2ncn([C@@H]3O[C@H](CO)[C@@H](O)[C@H]3O)c2n1 [Spongosine]	–	–	Yes	–
Kanamycin A	–	Yes	–	–
NC[C@H]1O[C@H](O[C@H]2[C@H](O)[C@@H](O[C@H]3O[C@H](CO)[C@@H](O)[C@H](N)[C@H]3O)[C@H](N)C[C@@H]2N)[C@H](N)C[C@@H]1O [Tobramycin]	7.1 ± 0.2	Yes	–	–
Nc1ncnc2c1ncn2[C@H]1O[C@@H](CO)[C@H](O)[C@@H]1O [L-adenosine]	–	–	No	–
OC[C@H]1OC(O)[C@H](O)[C@@H](F)[C@@H]1O (stereo partly shown) [B6]	–	Yes	–	–
Nc1ncnc2c1ncn2[C@@H]1O[C@H](COP(=O)(O)O)[C@@H](O)[C@H]1O [AMP, adenosine monophosphate]	–	–	–	inhibition of PARN1-430, fluorescence assay (PARN1-430 [1]; 2.5 mM AMP, PARN1-430 73 nM): effectively inhibited; inhibitory effect on PARN1-430, gel assay (PARN1-430 [2]): inhibited; concentration at which PARN1-430 is inhibited (PARN): > 1 mM
NC[C@@H]1O[C@H](O[C@H]2[C@@H](O)[C@H](O[C@@H]3[C@@H](O)[C@H](N)C[C@H](N)[C@H]3O[C@H]3O[C@H](CN)[C@@H](O)[C@H](O)[C@H]3N)O[C@@H]2CO)[C@H](N)[C@@H](O)[C@@H]1O [Neomycin B]	0.4 ± 0.1	Yes	–	–
Nc1nc(Cl)nc2c1ncn2[C@@H]1O[C@H](CO)[C@@H](O)[C@@H]1F [Clofarabine]	–	–	No	–
O=c1ccn([C@@H]2O[C@H](CO)[C@@H](O)[C@H](F)[C@H]2O)c(=O)[nH]1 [U1, 1-(3′-deoxy-3′-fluoro-β-d-glucopyranosyl) uracil]	19 ± 5	Yes	–	–
Nc1nc(Cl)nc2c1ncn2[C@H]1C[C@H](O)[C@@H](CO)O1 [Cladribine]	–	–	Yes	–
O=C(Nc1ncnc2c1ncn2[C@@H]1O[C@H](CO)C[C@H](F)[C@H]1O)c1ccccc1 [A6, 1-(3′,4′, dideoxy-3′-fluoro-β-d-glucopyranosyl)-N4-benzoyl adenine]	210 ± 45	Yes	–	–
O=C(Nc1ncnc2c1ncn2[C@@H]1O[C@H](CO)C[C@H](F)[C@H]1O)c1ccccc1 [A2, 9-(3′,4′, dideoxy-3′-fluoro-β-d-glucopyranosyl)-N6-benzoyl adenine]	510 ± 52	Yes	–	–
NC[C@H]1O[C@H](O[C@H]2[C@H](O)[C@@H](O[C@H]3O[C@H](CO)[C@@H](O)[C@H](N)[C@H]3O)[C@H](N)C[C@@H]2N)[C@H](N)[C@@H](O)[C@@H]1O [Kanamycin B]	7.3 ± 0.4	Yes	–	–
